In brackets after ≈: the same amount, converted by molar mass. Like-named read-outs stand apart in the source and are kept apart here.
Columns and labels:
B cell lymphoma 6 (BCL6) = molecular target: T1, B cell lymphoma 6 (BCL6) (Homo sapiens, UniProt P41182); experiment: HiBiT cellular degradation assay in SU-DHL-4 cells; format: cell-based; conditions: for DC50: concentration to reach 50% degradation of endogenous SmBiT-tagged BCL6, SU-DHL-4 cells, 24 hours of compound treatment
T1 construct: Endogenous B cell lymphoma 6 (BCL6) was tagged with the 11-amino acid Small BiT (SmBiT); endogenous in cells; host or cells: SU-DHL-4 (CRISPR/Cas9 knock-in, single cell clone)
Procedure: DC50 (concentration to reach 50% degradation) values were determined from a cellular degradation assay (HiBiT, Promega™) in Su-DHL-4 cells (Table 1). Endogenous B cell lymphoma 6 (BCL6) was tagged with the 11-amino acid Small BiT (SmBiT) through clustered regularly interspaced short palindromic repeats (CRISPR)/CRISPR-associated protein 9 (Cas9) gene editing and single cell clone selection. After 24 hours of compound treatment, cells were lysed and incubated with Large BiT (LgBiT) protein to reconstitute intact nanoluciferase. Substrate was then added and relative luciferase units were measured. Degradation levels for each treatment were taken as a percentage compared to the control, 100% DMSO (Prism).

Kinetic solubility = format: physicochemical; conditions: kinetic from dmso stock
[1] = Metabolic stability in human liver microsome; format: in vitro ADME; conditions: pH 7.4; human liver microsomes with NADPH, 37° C., 0-60 min
Procedure: • K2HPO4 was dissolved in water to a final concentration of 50 mM, and then adjusted pH to 7.4 with HCl and filtered through a 0.22 μm filter.
• 1 mg/mL stock of terfenadine/tolbutamide with DMSO was prepared, and then made into quenching solution (5/10 ng/mL terfenadine/tolbutamide) with can.
• 10 mM test compound stock with DMSO was prepared, and then made into 200 μM working solution with DMSO.
• 10 mM control compound (dextromethorphan) stock with DMSO was prepared, and then made into 200 μM working solution with DMSO.
• Liver microsomes were thawed in 37° C. water bath, and then made into 0.63 mg/mL liver microsomes working solution with phosphate buffer.
• 5 mM NADPH working solution was prepared with phosphate buffer.
• a) 1.5 μL test compound/control compound working solution was added to 238.5 μL liver microsome (n=1). • b) The solution was pre-incubated at 37° C. for 5 min. • c) The reaction was started by adding 60 μL NADPH working solution. • d) At each time point (0, 5, 15, 30 and 60 min), 30 μL reaction mixture was removed and added to 300 μL quenching solution. • e) All samples were centrifuged at 4,000 rpm at 4° C. for 15 min, then 100 μL of supernatant was transferred with 100 μL water for LC-MS/MS analysis.

[2] = aqueous buffer, 50 mM phosphate buffer pH 7.4, 24 hours at room temperature, read-out: Kinetic solubility @pH 7.4
[3] = FaSSIF, read-out: Kinetic solubility (FaSSIF)
[4] = FeSSIF, read-out: Kinetic solubility (FeSSIF)

Compound	DC50 (B cell lymphoma 6 (BCL6)) [nM]	solubility kinetic at 24 h (Kinetic solubility; [2]) [µM]	microsomal CLint at 1 µM [1] [µL/min/mg]	solubility kinetic at 24 h (Kinetic solubility; [3]) [µM]	solubility kinetic at 24 h (Kinetic solubility; [4]) [µM]	BCL6 degrader status (in words) (B cell lymphoma 6 (BCL6); conclusion drawn from Table 1)
C[C@@H]1CN(c2ncc(Cl)c(Nc3ccc4c(c3)n(CCC(C)(C)O)c(=O)n4C)n2)C[C@H](CN)C1(F)F (single isomer, unassigned) [Compound 2a]	105	266 (≈ 139 µg/mL)	< 6.1			
CNC(=O)COc1cc2cc(Nc3nc(N4C[C@H](CCN)C(F)(F)[C@H](C)C4)ncc3Cl)ccc2n(C)c1=O (single isomer, unassigned) [Compound 51a]	2	< 1.56	< 6.1	6.35 (≈ 3.49 µg/mL)	113 (≈ 62.2 µg/mL)	
CNC(=O)COc1cc2cc(Nc3nc(N4C[C@H](C)C[C@H](C)C4)ncc3Cl)ccc2n(C)c1=O [BI-3802]	5	< 1.56	23.8	2.97 (≈ 1.44 µg/mL)	11.3 (≈ 5.48 µg/mL)	
C[C@@H]1CN(c2ncc(Cl)c(Nc3ccc4c(c3)n(CCC(C)(C)O)c(=O)n4C)n2)C[C@H](C)C1(F)F [CCT-369260]		< 1.56	12.3	2.92 (≈ 1.49 µg/mL)	216 (≈ 110 µg/mL)	
CNC(=O)COc1cc2cc(Nc3nc(N4C[C@@H](C)C(F)(F)[C@@H](C)C4)ncc3Cl)ccc2n(C)c1=O [Cmp A]	5	< 1.56	< 3.7	< 1.56	1.82 (≈ 0.948 µg/mL)	
C[C@@H]1C[C@H](C)CN(c2ncc(Cl)c(Nc3ccc4c(c3)n(CCC(C)(C)O)c(=O)n4C)n2)C1 [Cmp B]		< 1.56	30	< 1.56	213 (≈ 101 µg/mL)	
C[C@@H]1CN(c2ncc(Cl)c(Nc3ccc4c(c3)n(CCC(C)(C)O)c(=O)n4C)n2)C[C@H](N)C1(F)F [Compound 1, 5-[[2-[(3S,5R)-3-Amino-4,4-difluoro-5-methyl-1-piperidyl]-5-chloro-pyrimidin-4-yl]amino]-3-(3-hydroxy-3-methyl-butyl)-1-methyl-benzimidazol-2-one]	20	108 (≈ 55.1 µg/mL)	< 6.1	208 (≈ 106 µg/mL)	232 (≈ 118 µg/mL)	degraders of BCL6

Reference: patent publication US20260130907A1 (DANA-FARBER CANCER INSTITUTE, INC., priority 2022, published 2026)
